Measured values taken from patent US20230089867A1, “CYCLIC PENTAMER COMPOUNDS AS PROPROTEIN CONVERTASE SUBTILISIN/KEXIN TYPE 9 (PCSK9) INHIBITORS FOR THE TREATMENT OF METABOLIC DISORDER” (Novartis AG, priority 2018, published 2023).

Molecular target: human PCSK9 (Homo sapiens, UniProt Q8NBP7)
Assay: PCSK9 ligand binding TR-FRET assay (interference with binding of human PCSK9 to human LDLR)
Conditions: for Max % inhibition: PCSK9 FRET assay, efficacy (Amax), 100% = 1 uM unlabeled human PCSK9, 0% = DMSO; for IC50: TR-FRET, human PCSK9 Alexa Fluor 647 / human LDLR extracellular domain-Europium Kryptate, read-out: PCSK9 FRET Assay IC50
Experimental: The PCSK9 binding of the compounds of the disclosure were measured using a time resolved fluorescence resonance energy transfer (TR-FRET) assay. This time resolved fluorescence resonance energy transfer (TR-FRET) assay measures the ability of a compound of the present disclosure to interfere with the binding of human PCSK9 to human LDLR, providing measures of both potency (IC50) and efficacy (Amax).
These solutions were pipetted into columns 1 and 11 of the compound plate. Threefold serial dilutions were generated in columns 2-10 and 12-20 of the compound plate by transferring 10 uL into 20 uL of DMSO. Columns 21 and 22 of the compound plate were negative controls containing DMSO alone.
An intermediate plate was generated in a Greiner V bottom plate by transferring 8 uL from each well of the master plate into a corresponding well containing 92 uL of assay buffer and mixing thoroughly.
A Proxi plate-low volume assay plate was used for the assay. […] For the positive control wells in columns 23 and 24 of the plate, 5 uL of unlabeled human PCSK9 was added at 4 uM in assay buffer containing 8% DMSO. Following a 30 minute incubation, 5 uL of 4 nM Human LDLR extracellular domain-Europium Kryptate was added and the mixture was incubated for an additional 2 hours.
The FRET ratio (FRET/Europium) was used for calculations.
Data is expressed as percent inhibition: (value−0%)/(100%−0%).

Sequence of human PCSK9 (Q8NBP7 153-692): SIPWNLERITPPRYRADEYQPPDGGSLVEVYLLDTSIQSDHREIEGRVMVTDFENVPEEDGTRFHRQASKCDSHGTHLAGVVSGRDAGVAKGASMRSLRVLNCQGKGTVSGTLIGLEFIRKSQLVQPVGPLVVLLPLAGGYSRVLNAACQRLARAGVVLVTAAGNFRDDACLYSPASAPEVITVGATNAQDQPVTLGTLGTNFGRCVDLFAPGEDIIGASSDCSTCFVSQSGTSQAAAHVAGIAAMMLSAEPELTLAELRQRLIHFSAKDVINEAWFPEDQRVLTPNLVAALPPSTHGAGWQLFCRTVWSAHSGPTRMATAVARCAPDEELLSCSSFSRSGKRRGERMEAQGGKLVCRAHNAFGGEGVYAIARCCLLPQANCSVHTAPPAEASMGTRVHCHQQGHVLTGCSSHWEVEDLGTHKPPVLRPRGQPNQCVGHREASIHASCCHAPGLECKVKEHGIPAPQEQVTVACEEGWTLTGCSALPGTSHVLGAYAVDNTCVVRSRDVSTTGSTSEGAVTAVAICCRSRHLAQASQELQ
Sequence of human PCSK9 (Q8NBP7 31-152 partner limits assumed): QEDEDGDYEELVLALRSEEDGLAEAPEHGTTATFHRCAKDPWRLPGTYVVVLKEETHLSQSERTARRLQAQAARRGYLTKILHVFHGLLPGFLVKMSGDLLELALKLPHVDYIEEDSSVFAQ

| SMILES | Max % inhibition [%] | IC50 [nM] |
| --- | --- | --- |
| COC[C@@H]1NC(=O)[C@H](C)N(Cc2c(Oc3ccc(-c4cnc(CN(C)C)n4C)cc3)cccc2OC(F)F)C(=O)C[C@@H](C)C(=O)N(C)[C@@H](C)CNC(=O)C[C@H](Cc2ccc(Cl)cc2)N(C)C1=O [Compound 62, (5S,8S,13S,16R)-8-(4-chlorobenzyl)-1-(2-(difluoromethoxy)-6-(4-(2-((dimethylamino)methyl)-1-methyl-1H-imidazol-5-yl)phenoxy)benzyl)-5-(methoxymethyl)-2,7,13,14,16-pentamethyl-1,4,7,11,14-pentaazacyclooctadecane-3,6,10,15,18-pentaone] | 88.46 | 16.8 |
| C=CC[C@@H]1CC(=O)N(Cc2ccc(Cl)cc2Oc2ccc(-c3cnc(CN(C)C)n3C)cc2)[C@@H](CCCN2CCOCC2)C(=O)N[C@@H](COC)C(=O)N(C)[C@@H](Cc2ccc(Cl)cc2)CC(=O)N[C@H]2CCCC[C@@H]2N(C)C1=O [Compound 277, (4S,7S,10S,14R,16aS,20aS)-14-allyl-11-(4-chloro-2-(4-(2-((dimethylamino)methyl)-1-methyl-1H-imidazol-5-yl)phenoxy)benzyl)-4-(4-chlorobenzyl)-7-(methoxymethyl)-5,16-dimethyl-10-(3-morpholinopropyl)hexadecahydrobenzo[l][1,4,7,11,14]pentaazacyclooctadecine-2,6,9,12,15(3H)-pentaone] | 83.22 | 2.5 |
| COC[C@@H]1NC(=O)[C@H](C)N(Cc2c(F)cc(F)cc2Oc2ccc(-c3cnc(CN(C)C)n3C)cc2)C(=O)C[C@@H](Cc2ccccc2)C(=O)N(C)[C@@H](C)CNC(=O)C[C@H](Cc2ccc(Cl)cc2)N(C)C1=O [Compound 236, (2S,5S,8S,13S,16R)-16-benzyl-8-(4-chlorobenzyl)-1-(2-(4-(2-((dimethylamino)methyl)-1-methyl-1H-imidazol-5-yl)phenoxy)-4,6-difluorobenzyl)-5-(methoxymethyl)-2,7,13,14-tetramethyl-1,4,7,11,14-pentaazacyclooctadecane-3,6,10,15,18-pentaone] | 95.33 | 6.6 |
| CCOC(=O)c1ncn(-c2ccc(Oc3cc(Cl)ccc3CN3C(=O)C[C@@H](Cc4ccccc4)C(=O)N(C)[C@@H](C)CNC(=O)C[C@H](Cc4ccc(Cl)cc4)N(C)C(=O)[C@H](COC)NC(=O)[C@@H]3C)cc2)c1C [Compound 149, ethyl 1-(4-(2-(((2S,5S,8S,13S,16R)-16-benzyl-8-(4-chlorobenzyl)-5-(methoxymethyl)-2,7,13,14-tetramethyl-3,6,10,15,18-pentaoxo-1,4,7,11,14-pentaazacyclooctadecan-1-yl)methyl)-5-chlorophenoxy)phenyl)-5-methyl-1H-imidazole-4-carboxylate] | 72.43 | 18.7 |
| COC[C@@H]1NC(=O)[C@H](C)N(Cc2ccc(Cl)cc2Oc2ccc(-n3cc(CN4CCCC4)nn3)cc2)C(=O)C[C@@H](Cc2ccccc2)C(=O)N(C)[C@@H](C)CNC(=O)C[C@H](Cc2ccc(Cl)cc2)N(C)C1=O [Compound 127, (2S,5S,8S,13S,16R)-16-benzyl-1-(4-chloro-2-(4-(4-(pyrrolidin-1-ylmethyl)-1H-1,2,3-triazol-1-yl)phenoxy)benzyl)-8-(4-chlorobenzyl)-5-(methoxymethyl)-2,7,13,14-tetramethyl-1,4,7,11,14-pentaazacyclooctadecane-3,6,10,15,18-pentaone] | 55.01 | 7.8 |
| COCC(=O)N1CCn2c(nnc2-c2ccc(Oc3cc(Cl)ccc3CN3C(=O)C[C@@H](Cc4ccccc4)C(=O)N(C)[C@@H](C)CNC(=O)C[C@H](Cc4ccc(Cl)cc4)N(C)C(=O)[C@H](COC)NC(=O)[C@@H]3C)cc2)C1 [Compound 116, (2S,5S,8S,13S,16R)-16-benzyl-1-(4-chloro-2-(4-(7-(2-methoxyacetyl)-5,6,7,8-tetrahydro-[1,2,4]triazolo[4,3-a]pyrazin-3-yl)phenoxy)benzyl)-8-(4-chlorobenzyl)-5-(methoxymethyl)-2,7,13,14-tetramethyl-1,4,7,11,14-pentaazacyclooctadecane-3,6,10,15,18-pentaone] | 59.45 | 4.8 |
| Cc1c(CN2CCCC2)cncc1-c1ccc(Oc2cc(Cl)ccc2CN2C(=O)C[C@@H](Cc3ccccc3)C(=O)N(C)[C@@H](C)CNC(=O)C[C@H](Cc3ccc(Cl)cc3)N(C)C(=O)[C@H](CO)NC(=O)[C@@H]2C)cc1 [Compound 146, (2S,5S,8S,13S,16R)-16-benzyl-1-(4-chloro-2-(4-(4-methyl-5-(pyrrolidin-1-ylmethyl)pyridin-3-yl)phenoxy)benzyl)-8-(4-chlorobenzyl)-5-(hydroxymethyl)-2,7,13,14-tetramethyl-1,4,7,11,14-pentaazacyclooctadecane-3,6,10,15,18-pentaone] | 51.67 | 3.1 |

Compounds with a lower IC50, results first:

| Max % inhibition [%] | IC50 [nM] | SMILES |
| --- | --- | --- |
| 98.03 | 1.2 | COC[C@@H]1NC(=O)[C@H](CCCN2CCCC2=O)N(Cc2ccc(Cl)cc2Oc2ccc(-c3cnc(CN(C)C)n3C)cc2)C(=O)C[C@@H](Cc2ccccc2)C(=O)N(C)[C@H]2CCCC[C@@H]2NC(=O)C[C@H](Cc2ccc(Cl)cc2)N(C)C1=O [Compound 296, (4S,7S,10S,14R,16aS,20aS)-14-benzyl-11-(4-chloro-2-(4-(2-((dimethylamino)-methyl)-1-methyl-1H-imidazol-5-yl)phenoxy)benzyl)-4-(4-chlorobenzyl)-7-(methoxymethyl)-5,16-dimethyl-10-(3-(2-oxopyrrolidin-1-yl)propyl)hexadecahydrobenzo[l][1,4,7,11,14]penta-azacyclooctadecine-2,6,9,12,15(3H)-pentaone] |
| 104.20 | 1.6 | COC[C@@H]1NC(=O)[C@H](C)N(Cc2ccc(Cl)cc2Oc2ccc(-c3cnc(CN(C)C)n3C)cc2)C(=O)C[C@@H](Cc2ccccc2C#N)C(=O)N(C)[C@@H](C)[C@H](C)NC(=O)C[C@H](Cc2ccc(Cl)cc2)N(C)C1=O [Compound 99, 2-(((2S,5S,8S,12S,13S,16R)-1-(4-chloro-2-(4-(2-((dimethylamino)methyl)-1-methyl-1H-imidazol-5-yl)phenoxy)benzyl)-8-(4-chlorobenzyl)-5-(methoxymethyl)-2,7,12,13,14-pentamethyl-3,6,10,15,18-pentaoxo-1,4,7,11,14-pentaazacyclooctadecan-16-yl)methyl)benzonitrile] |
| 100.92 | 0.6 | C=CC[C@@H]1CC(=O)N(Cc2ccc(Cl)cc2Oc2ccc(-c3cnc(CN(C)C)n3C)cc2)[C@@H](C)C(=O)N[C@@H](COC)C(=O)N(C)[C@@H](Cc2ccc(Cl)cc2)CC(=O)N[C@@H](C)[C@H](C)N(C)C1=O [Compound 289, (2S,5S,8S,12S,13S,16R)-16-allyl-1-(4-chloro-2-(4-(2-((dimethylamino)methyl)-1-methyl-1H-imidazol-5-yl)phenoxy)benzyl)-8-(4-chlorobenzyl)-5-(methoxymethyl)-2,7,12,13,14-pentamethyl-1,4,7,11,14-pentaazacyclooctadecane-3,6,10,15,18-pentaone] |
| 95.01 | 1.4 | COC[C@@H]1NC(=O)[C@H](C)N(Cc2ccc(Cl)cc2Oc2ccc(-c3cnc(CN4CC5(COC5)C4)n3C)cc2)C(=O)C[C@@H](Cc2ccccc2)C(=O)N(C)[C@@H](C)CNC(=O)C[C@H](Cc2ccc(Cl)cc2)N(C)C1=O [Compound 189, (2S,5S,8S,13S,16R)-1-(2-(4-(2-(2-oxa-6-azaspiro[3.3]heptan-6-ylmethyl)-1-methyl-1H-imidazol-5-yl)phenoxy)-4-chlorobenzyl)-16-benzyl-8-(4-chlorobenzyl)-5-(methoxymethyl)-2,7,13,14-tetramethyl-1,4,7,11,14-pentaazacyclooctadecane-3,6,10,15,18-pentaone] |
| 106.74 | 2.2 | CC[C@H]1C(=O)N[C@@H](COC)C(=O)N(C)[C@@H](Cc2ccc(Cl)cc2F)CC(=O)NC[C@H](C)N(C)C(=O)[C@H](Cc2ccccc2)CC(=O)N1Cc1ccc(Cl)cc1Oc1ccc(-c2cnc(CN(C)C)n2C)cc1 [Compound 248, (2S,5S,8S,13S,16R)-16-benzyl-1-(4-chloro-2-(4-(2-((dimethylamino)methyl)-1-methyl-1H-imidazol-5-yl)phenoxy)benzyl)-8-(4-chloro-2-fluorobenzyl)-2-ethyl-5-(methoxymethyl)-7,13,14-trimethyl-1,4,7,11,14-pentaazacyclooctadecane-3,6,10,15,18-pentaone] |
| 103.76 | 0.6 | COC[C@@H]1NC(=O)[C@H](C)N(Cc2ccc(OC(F)F)cc2Oc2ccc(-c3cnc(CN(C)C)n3C)cc2)C(=O)C[C@@H](Cc2ccccc2)C(=O)N(C)[C@@H](C)CNC(=O)C[C@H](Cc2ccc(Cl)cc2)N(C)C1=O [Compound 179, (2S,5S,8S,13S,16R)-16-benzyl-8-(4-chlorobenzyl)-1-(4-(difluoromethoxy)-2-(4-(2-((dimethylamino)methyl)-1-methyl-1H-imidazol-5-yl)phenoxy)benzyl)-5-(methoxymethyl)-2,7,13,14-tetramethyl-1,4,7,11,14-pentaazacyclooctadecane-3,6,10,15,18-pentaone] |
